Laboratory results taken from article PMC11085308, “Design, Synthesis and Biological Activity of Novel Methoxy- and Hydroxy-Substituted N-Benzimidazole-Derived Carboxamides” (Molecules, 2024).
≈ marks a conversion by molar mass, not a printed value.

Tests used:
[1] = ABTS radical scavenging assay; details: head prints 'mM (* µM)'; no cell carries an asterisk
From the text: (§1) The synthesized benzazole acrylonitrile derivatives were screened for their antioxidative potency by using in vitro assays, namely DPPH and ABTS as free radical scavenging assays and FRAP as a ferric reducing/antioxidant power assay.
(§2) The well-known antioxidant butylated hydroxytoluene (BHT) was used as a standard for comparing activity during testing. The DPPH assay is a standard commonly used test for the in vitro assessment of the antioxidant capacity of novel compounds by using their ability to scavenge the stable radical 1,1-diphenyl-picrylhydrazyl. […] Another test used to evaluate the antioxidative capacity of novel compounds was the ABTS test, by which their activity was evaluated by scavenging the stable radical 3-ethylbenzthiazoline-6-sulphonic acid.
The total antioxidant activity (TEAC) method was adapted for use with a microplate reader. […] On the day of analysis, the ABTS•+ solution was diluted with PBS (pH7.4) to attain an absorbance of 0.700 ± 0.01 at 734 nm. This radical state remained stable for over two days when stored in the dark at room temperature. The standards and solutions of the tested compounds (10 µL) were mixed with the working ABTS•+ solution (200 µL) in microplate wells and incubated at room temperature for 5 min. The reduction in absorbance at 734 nm was measured using a µQuant (Biotec Inc., Auburn, CA, USA) microplate reader. The percentage scavenging of the test samples at each concentration was calculated using the following formula:[(Abscontrol − Abscompound)/Abscontrol] × 100
The IC50 values for each compound were calculated from dose–response curves. All measurements where carried out in triplicate with a linear regression analysis.

[2] = DPPH free radical scavenging assay; details: compared to the standard BHT
From the text: as §1, §2
Determination of the reducing activity of the stable radical 1,1-diphenyl-picrylhydrazyl (DPPH):
The reducing activity of the investigated systems was measured by the DPPH method according to previously described procedures with modifications to ensure their use on a 96-well microplate. Briefly, equal volumes of various concentrations of the tested molecules (dissolved in DMSO) were added to a solution of DPPH (final concentration of 50 µM in absolute ethanol). Ethanol and DMSO were used as control solutions in line with earlier reports. The radical scavenging activity was calculated using the following formula:[(A517 control − A517 compound)/A517 control] × 100.
The IC50 values were calculated from dose–response curves using nonlinear regression analysis with the GraphPad Prism 8 Ink. program. All measurements were carried out in triplicate.

[3] = test system: HEK 293 (human embryonic kidney); experiment: Antiproliferative activity in vitro, MTT assay, 72 h, non-cancerous cell line; assay type: cell-based; details: HEK293, 72 h incubation, '-' with footnote a = did not show biological activity due to precipitation
Description: (§3) The experiments were carried out on four human cell lines which are derived from three cancer types: H460 (lung carcinoma), HCT 116 (colorectal carcinoma), MCF-7 (human breast cancer) and the non-cancerous cell line HEK 293 (human embryonic kidney).
(§4) The results are compared with the known antiproliferative agents doxorubicin and etoposide. […] Therefore, it is not clear whether the observed antiproliferative activity is due to the biological activity of the compounds or to precipitation.
(§5) The experiments were performed on four human cell lines, including HCT 116 (colon carcinoma), H 460 (lung carcinoma), MCF-7 (breast carcinoma) and HEK 293 (human embryonic kidney cells), in line with previously published experimental procedures. Briefly, the cells were grown in DMEM medium with the addition of 10% fetal bovine serum (FBS), 2 mM of L-glutamine, 100 U/mL of penicillin and 100 µg/mL of streptomycin and cultured as monolayers at 37 °C in a humidified atmosphere with 5% CO2. Cells were seeded at 2 × 10^3 cells/well in standard 96-well microtiter plates and left to attach for 24 h. The next day, a test compound was added in five serial 10-fold dilutions. The rate of cell growth was evaluated after 72 h of incubation with MTT assays. […] Each test was performed in quadruplicate in at least two individual experiments.

E. faecalis ATCC 29212 = experiment: Antibacterial activity in vitro, broth microdilution MIC; assay type: cell-based; details: for MIC E. faecalis ATCC 29212: broth microdilution, 16–24 h at 37 °C, unit inferred
Description: (§6) The in vitro antibacterial activity of the synthesized benzamides 7–12 and 31–37 was evaluated against a panel of eight different bacterial strains. The Gram-positive bacterial strains comprised S. aureus, S. pneumoniae and E. faecalis, and the panel of Gram-negative bacteria consisted of E. coli, K. pneumoniae, A. baumannii and P. aeruginosa.
(§7) The selected bacterial strains were Gram-negative Escherichia coli (ATCC 25922) and Gram-positive Staphylococcus aureus (ATCC 29213) and S. Pneumoniae (ATCC 49619). The Saccharomyces cerevisiae ATCC 7752 strain was tested as a eukaryotic model organism. Synthesized compounds were prepared as 10 mM DMSO solutions and tested in a final concentration range of 100–0.2 µM [39].
(§8) Broth microdilution testing was performed according to CLSI (Clinical Laboratory Standards Institute) guidelines. The MIC (minimal inhibitory concentration) value was defined as the last tested concentration of a compound at which there is no visible growth of bacteria. Inoculums for each microorganism were prepared using the direct colony suspension method, where broth solutions that achieved turbidity equivalent to 0.5 McFarland standards were additionally diluted 100× with cation-adjusted MH media (Becton Dickinson). All test plates were incubated for 16–24 h at 37 °C.

A. baumannii ATCC 17978 = experiment: as above; assay type: cell-based; details: 16–24 h at 37 °C, unit inferred
Description: as §6, §7, §8

P. aeruginosa ATCC 27853 = experiment: as above; assay type: cell-based; details: 16–24 h at 37 °C, unit inferred
Description: as §6, §7, §8

E. coli ATCC 25922 = experiment: as above; assay type: cell-based, Escherichia coli; details: 16–24 h at 37 °C, unit inferred
Description: as §6, §7, §8

S. aureus ATCC 29213 = experiment: as above; assay type: cell-based, Staphylococcus aureus; details: broth microdilution, 16–24 h at 37 °C; unit inferred
Description: as §6, §7, §8

[4] = test system: MCF-7 (human breast cancer); experiment: Antiproliferative activity in vitro, MTT assay, 72 h; assay type: cell-based; details: MCF7, 72 h incubation
Description: as §3, §4, §5

[5] = test system: HCT 116 (colorectal carcinoma); experiment: as above; assay type: cell-based; details: Homo sapiens, 72 h incubation, '-' with footnote a = did not show biological activity due to precipitation
Description: as §3, §4, §5

H460 (lung carcinoma) = experiment: as above; assay type: cell-based; details: Homo sapiens, NCI-H460, 72 h incubation
Description: as §3, §4, §5

[6] = Ferric reducing/antioxidant power (FRAP assay); set-up: FRAP: unit not given here; details: for FRAP: Fe2+ equivalents, triplicate
Description: as §1
The antioxidant activity of a substance is directly related to its reducing power.
The FRAP method was carried out according to previously described procedures with some modifications to make it compatible with an assay on a 96-well microplate. All results were expressed as Fe^2+ equivalents (Fe^2+ µmol). Ferrous sulphate (FeSO4 × 7H2O) was used to develop a standard curve of 20–2000 µmol/l for the FRAP test.

E. coli efflux del. = experiment: microbe, parasite or virus in culture; assay type: cell-based, Escherichia coli; details: broth microdilution, 16–24 h at 37 °C; unit inferred
Description: as §6, §7, §8

HCT 116 cells = experiment: Antioxidative activity assay in cells (ROS level, DCFH-DA fluorescence); assay type: cell-based, human; details: HCT 116, TBHP 100 µM plus 10 µM compound, 1 h, compared to NAC
From the text: We further selected compounds 9, 10, 32 and 36, showing quite pronounced antioxidant capacity in the DPPH and FRAP assays, in order to test their pro- and antioxidant activity in tumor cells. In order to test the antioxidant activity of the selected compounds in tumor cells (Figure 2), we treated HCT 116 cells with tert-butyl hydroperoxide (TBHP), a substance commonly used for inducing oxidative stress in cells and tissues, alone or in combination with a known antioxidative agent, N-acetyl-L-cysteine (NAC), or the tested compounds. We measured the formation of oxidative stress byproducts using 2′,7′-dichlorodihydrofluorescein diacetate (DCFH-DA).
For the antioxidative activity assay, 2.5 × 10^4 cells were seeded into 96-well microtiter plates and left to attach for 24 h. The next day, cells were washed with PBS and incubated in FBS-free DMEM medium with 25 µM of DCFH-DA fluorescence dye. After 45 min of incubation, the medium was discarded, and the cells were washed with PBS.
After the washing step, the cells were incubated with 100 µM of tert-butyl hydroperoxide (TBHP) alone or in combination with antioxidative agents (50 mM of N-Acetyl-L-cysteine-NAC or 10 µM of the tested compounds) in PBS for 1 h at 37 °C. DCFH-DA fluorescence was recorded on a microplate fluorimeter reader (Tecan) with an excitation beam of 485 nm, while the emitted fluorescence was collected at 535 nm. All tests were presented as the means of two independent measurements carried out in triplicate. One-way ANOVA with Tukey’s post hoc test was used for statistical analysis: *—p < 0.05; **—p < 0.01; ***—p < 0.001.
Figure 2 Antioxidative activity of selected systems. HCT 116 cells were treated with a combination of H2O2 (4 mM) and N-acetyl-L-cysteine (NAC, 10 mM) or the tested compounds (10 mM). Treatment with H2O2 (4 mM) alone was used as a control for ROS induction. The level of reactive oxygen species (ROS) was measured with the fluorescent dye DCFH-DA using a fluorimeter. The data presented here are the results of three independent measurements carried out in triplicate. A one-way ANOVA with Tukey’s post hoc test was used for statistical analysis, *** p < 0.001; ns—not significant.

| SMILES | IC50 [1] [mM] | DPPH free radical scavenging activity, in words [2] | IC50 [3] [µM] | MIC E. faecalis ATCC 29212 (E. faecalis ATCC 29212) [µM] | MIC A. baumannii ATCC 17978 (A. baumannii ATCC 17978) [µM] | MIC P. aeruginosa ATCC 27853 (P. aeruginosa ATCC 27853) [µM] | MIC E. coli ATCC 25922 (E. coli ATCC 25922) [µM] | MIC S. aureus ATCC 29213 (S. aureus ATCC 29213) [µM] | IC50 [4] [µM] | IC50 [5] [µM] | IC50 (H460 (lung carcinoma)) [µM] | FRAP [6] | FRAP ferric reducing/antioxidant power, in words ([6]; compared to the standard BHT) | MIC E. coli efflux del. (E. coli efflux del.) [µM] | Level of ROS in cells under induced oxidative stress (HCT 116 cells) | Selectivity of antibacterial activity, in words (E. faecalis ATCC 29212; against the Gram-positive strain E. faecalis) | melting point [°C] |
| --- | --- | --- | --- | --- | --- | --- | --- | --- | --- | --- | --- | --- | --- | --- | --- | --- | --- |
| Cc1cc(C(C)(C)C)c(O)c(C(C)(C)C)c1 [BHT, butylated hydroxytoluene, reference compound] | 0.02312 ± 0.00012 |  |  |  |  |  |  |  |  |  |  |  |  |  |  |  |  |
| Cn1c(NC(=O)c2cc(O)c(O)c(O)c2)nc2ccccc21 [Compound 9, 3,4,5-trihydroxy-N-(1-methyl-1H-benzo[d]imidazol-2-yl)benzamide] |  | significantly improved | 32.3 ± 6.5 | 64 (≈ 19.2 µg/mL) | > 64 | > 64 | > 64 | 64 (≈ 19.2 µg/mL) | 35.5 ± 5.2 | > 100 | > 100 | 4036.77 ± 8.82 | excellent in vitro antioxidant activity | > 64 | reducing the level of ROS in the cells |  |  |
| O=C(Nc1nc2ccccc2[nH]1)c1ccc(O)cc1O [Compound 31, N-(1H-benzo[d]imidazol-2-yl)-2,4-dihydroxybenzamide] | 0.13 ± 0.006 |  | 24.5 ± 6.4 | 32 (≈ 8.62 µg/mL) | > 64 | > 64 | > 64 | > 64 | 35.1 ± 6.9 | 38.6 ± 15.6 | > 100 | 89.29 ± 21.92 |  | 64 (≈ 17.2 µg/mL) |  | selective antibacterial activity | 212 to 214 |
